Experimental data published in ChEMBL document CHEMBL2203257 (Bioorg Med Chem Lett, 2012).

Experiments:
[1] = biological target: Cytochrome P450 2C19 (Homo sapiens, UniProt P33261); test: Inhibition of CYP2C19 at >20 uM; type: ADME
[2] = biological target: Serine/threonine-protein kinase PAK 4 (Homo sapiens, UniProt O96013); test: Inhibition of PAK4
[3] = biological target: Casein kinase I isoform gamma-1 (Homo sapiens, UniProt Q9HCP0); test: Inhibition of CSNK1G1
[4] = biological target: Tyrosine-protein kinase CSK (Homo sapiens, UniProt P41240); test: Inhibition of CSK
[5] = biological target: Ephrin type-B receptor 4 (Homo sapiens, UniProt P54760); test: Inhibition of EPHB4
[6] = biological target: Mitogen-activated protein kinase 14 (Homo sapiens, UniProt Q16539); test: Inhibition of MAPK14
[7] = biological target: Serine/threonine-protein kinase TBK1 (Homo sapiens, UniProt Q9UHD2); test: Inhibition of TBK1
[8] = tested on: Mus musculus; test: Antiinflammatory activity in mouse air pouch model assessed as effect on IL-8-induced migration of granulocytes into air pouch at 1 mg/kg, po; type: functional
[9] = biological target: Phosphatidylinositol 5-phosphate 4-kinase type-2 gamma (Homo sapiens, UniProt Q8TBX8); test: Inhibition of PIP4K2C
[10] = biological target: Ribosomal protein S6 kinase alpha-1 (Homo sapiens, UniProt Q15418); test: Inhibition of RPS6KA1
[11] = biological target: Ribosomal protein S6 kinase alpha-5 (Homo sapiens, UniProt O75582); test: Inhibition of RPS6KA5
[12] = tested on: Mus musculus; test: Antiinflammatory activity in mouse air pouch model assessed as effect on IL-8-induced migration of granulocytes into air pouch at 3 mg/kg, po; type: functional
[13] = biological target: Calcium/calmodulin-dependent protein kinase kinase 2 (Homo sapiens, UniProt Q96RR4); test: Inhibition of CAMKK2
[14] = Volume of distribution at steady state […] at 5 mg/kg, po; 1 mg/kg, iv; type: ADME, organism-based; conditions: read-out: Vdss
[15] = biological target: Calcium/calmodulin-dependent protein kinase type 1D (Homo sapiens, UniProt Q8IU85); test: Inhibition of CAMK1D
[16] = biological target: Epithelial discoidin domain-containing receptor 1 (Homo sapiens, UniProt Q08345); test: Inhibition of DDR1
[17] = biological target: Tyrosine-protein kinase SYK (Homo sapiens, UniProt P43405); test: Inhibition of SYK
[18] = biological target: Non-receptor tyrosine-protein kinase TNK1 (Homo sapiens, UniProt Q13470); test: Inhibition of TNK1
[19] = biological target: Mitogen-activated protein kinase 11 (Homo sapiens, UniProt Q15759); test: Inhibition of MAPK11
[20] = biological target: Mitogen-activated protein kinase kinase kinase kinase 3 (Homo sapiens, UniProt Q8IVH8); test: Inhibition of MAP4K3
[21] = biological target: Non-receptor tyrosine-protein kinase TYK2 (Homo sapiens, UniProt P29597); test: Inhibition of TYK2
[22] = biological target: TGF-beta receptor type-1 (Homo sapiens, UniProt P36897); test: Inhibition of TGFBR1
[23] = biological target: Serine/threonine-protein kinase SIK2 (Homo sapiens, UniProt Q9H0K1); test: Inhibition of SIK2
[24] = biological target: Casein kinase I isoform epsilon (Homo sapiens, UniProt P49674); test: Inhibition of CSNK1E
[25] = biological target: eIF-2-alpha kinase GCN2 (Homo sapiens, UniProt Q9P2K8); test: Inhibition of EIF2AK4
[26] = biological target: Cyclin-dependent kinase 6 (Homo sapiens, UniProt Q00534); test: Inhibition of CDK6
[27] = biological target: Tyrosine-protein kinase Fyn (Homo sapiens, UniProt P06241); test: Inhibition of FYN
[28] = biological target: Tyrosine-protein kinase Lyn (Homo sapiens, UniProt P07948); test: Inhibition of LYN
[29] = biological target: Proto-oncogene tyrosine-protein kinase receptor Ret (Homo sapiens, UniProt P07949); test: Inhibition of RET
[30] = biological target: Glycogen synthase kinase-3 beta (Homo sapiens, UniProt P49841); test: Inhibition of GSK3B
[31] = biological target: Scaffold protein ILK (Homo sapiens, UniProt Q13418); test: Inhibition of ILK
[32] = biological target: Mitogen-activated protein kinase kinase kinase 1 (Homo sapiens, UniProt Q13233); test: Inhibition of MAP3K1
[33] = biological target: Mitogen-activated protein kinase kinase kinase kinase 1 (Homo sapiens, UniProt Q92918); test: Inhibition of MAP4K1
[34] = Oral bioavailability in cynomolgus monkey; type: ADME, organism-based, Macaca fascicularis; conditions: in vivo
[35] = biological target: Cytochrome P450 1A2 (Homo sapiens, UniProt P05177); test: Inhibition of CYP1A2 at >20 uM; type: ADME
[36] = biological target: Interleukin-1 receptor-associated kinase 3 (Homo sapiens, UniProt Q9Y616); test: Inhibition of IRAK3
[37] = biological target: Serine/threonine-protein kinase D2 (Homo sapiens, UniProt Q9BZL6); test: Inhibition of PRKD2
[38] = biological target: Receptor-interacting serine/threonine-protein kinase 3 (Homo sapiens, UniProt Q9Y572); test: Inhibition of RIPK3
[39] = biological target: Serine/threonine-protein kinase 4 (Homo sapiens, UniProt Q13043); test: Inhibition of STK4
[40] = biological target: Bromodomain-containing protein 4 (Homo sapiens, UniProt O60885); test: Inhibition of BRD4
[41] = Cmax in rat […] at 5 mg/kg, po; 1 mg/kg, iv; type: ADME, organism-based
[42] = biological target: Ephrin type-B receptor 6 (Homo sapiens, UniProt O15197); test: Inhibition of EPHB6
[43] = biological target: Serine/threonine-protein kinase 3 (Homo sapiens, UniProt Q13188); test: Inhibition of STK3
[44] = tested on: Mus musculus; test: Antiarthritic activity against collagen-induced arthritis mouse model assessed as inhibition of disease progression at 3 mg/kg, po BID for 14 days; type: functional; conditions: 336 h
[45] = biological target: Serine/threonine-protein kinase PLK4 (Homo sapiens, UniProt O00444); test: Inhibition of PLK4
[46] = biological target: Aurora kinase B (Homo sapiens, UniProt Q96GD4); test: Inhibition of AURKB
[47] = biological target: Mitogen-activated protein kinase kinase kinase 4 (Homo sapiens, UniProt Q9Y6R4); test: Inhibition of MAP3K4
[48] = biological target: Phosphatidylinositol 4-kinase alpha (Homo sapiens, UniProt P42356); test: Inhibition of PIK4Ca
[49] = biological target: Ephrin type-A receptor 2 (Homo sapiens, UniProt P29317); test: Inhibition of EPHA2
[50] = biological target: Serine/threonine-protein kinase ATR (Homo sapiens, UniProt Q13535); test: Inhibition of ATR
[51] = biological target: Cyclin-dependent kinase 9 (Homo sapiens, UniProt P50750); test: Inhibition of CDK9
[52] = biological target: BMP-2-inducible protein kinase (Homo sapiens, UniProt Q9NSY1); test: Inhibition of BMP2K
[53] = biological target: Activated CDC42 kinase 1 (Homo sapiens, UniProt Q07912); test: Inhibition of TNK2
[54] = biological target: Dual specificity protein kinase CLK2 (Homo sapiens, UniProt P49760); test: Inhibition of CLK2

Mitogen-activated protein kinase kinase kinase kinase 1, sequence (Q92918 whole entry): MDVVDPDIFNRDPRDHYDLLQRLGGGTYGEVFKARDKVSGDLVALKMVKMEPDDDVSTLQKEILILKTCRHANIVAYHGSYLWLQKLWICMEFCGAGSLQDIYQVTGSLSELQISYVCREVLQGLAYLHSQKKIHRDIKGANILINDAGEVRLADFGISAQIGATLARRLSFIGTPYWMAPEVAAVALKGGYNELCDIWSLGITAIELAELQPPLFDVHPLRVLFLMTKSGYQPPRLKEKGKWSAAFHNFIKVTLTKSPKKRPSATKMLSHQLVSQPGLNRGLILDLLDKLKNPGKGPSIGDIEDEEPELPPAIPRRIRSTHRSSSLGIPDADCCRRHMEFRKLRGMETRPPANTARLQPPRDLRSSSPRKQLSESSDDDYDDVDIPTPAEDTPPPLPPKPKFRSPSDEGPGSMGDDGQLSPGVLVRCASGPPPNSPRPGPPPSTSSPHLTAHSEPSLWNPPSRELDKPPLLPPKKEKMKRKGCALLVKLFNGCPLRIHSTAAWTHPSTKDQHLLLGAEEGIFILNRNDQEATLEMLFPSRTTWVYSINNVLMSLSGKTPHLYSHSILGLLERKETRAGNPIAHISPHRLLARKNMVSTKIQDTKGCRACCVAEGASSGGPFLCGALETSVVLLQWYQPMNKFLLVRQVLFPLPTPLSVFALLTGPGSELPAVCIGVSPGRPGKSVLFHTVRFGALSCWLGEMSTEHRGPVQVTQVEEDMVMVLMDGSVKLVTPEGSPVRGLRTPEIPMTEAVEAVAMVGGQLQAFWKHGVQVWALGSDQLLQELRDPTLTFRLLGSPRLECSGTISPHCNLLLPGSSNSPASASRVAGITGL
BMP-2-inducible protein kinase, sequence (Q9NSY1 whole entry): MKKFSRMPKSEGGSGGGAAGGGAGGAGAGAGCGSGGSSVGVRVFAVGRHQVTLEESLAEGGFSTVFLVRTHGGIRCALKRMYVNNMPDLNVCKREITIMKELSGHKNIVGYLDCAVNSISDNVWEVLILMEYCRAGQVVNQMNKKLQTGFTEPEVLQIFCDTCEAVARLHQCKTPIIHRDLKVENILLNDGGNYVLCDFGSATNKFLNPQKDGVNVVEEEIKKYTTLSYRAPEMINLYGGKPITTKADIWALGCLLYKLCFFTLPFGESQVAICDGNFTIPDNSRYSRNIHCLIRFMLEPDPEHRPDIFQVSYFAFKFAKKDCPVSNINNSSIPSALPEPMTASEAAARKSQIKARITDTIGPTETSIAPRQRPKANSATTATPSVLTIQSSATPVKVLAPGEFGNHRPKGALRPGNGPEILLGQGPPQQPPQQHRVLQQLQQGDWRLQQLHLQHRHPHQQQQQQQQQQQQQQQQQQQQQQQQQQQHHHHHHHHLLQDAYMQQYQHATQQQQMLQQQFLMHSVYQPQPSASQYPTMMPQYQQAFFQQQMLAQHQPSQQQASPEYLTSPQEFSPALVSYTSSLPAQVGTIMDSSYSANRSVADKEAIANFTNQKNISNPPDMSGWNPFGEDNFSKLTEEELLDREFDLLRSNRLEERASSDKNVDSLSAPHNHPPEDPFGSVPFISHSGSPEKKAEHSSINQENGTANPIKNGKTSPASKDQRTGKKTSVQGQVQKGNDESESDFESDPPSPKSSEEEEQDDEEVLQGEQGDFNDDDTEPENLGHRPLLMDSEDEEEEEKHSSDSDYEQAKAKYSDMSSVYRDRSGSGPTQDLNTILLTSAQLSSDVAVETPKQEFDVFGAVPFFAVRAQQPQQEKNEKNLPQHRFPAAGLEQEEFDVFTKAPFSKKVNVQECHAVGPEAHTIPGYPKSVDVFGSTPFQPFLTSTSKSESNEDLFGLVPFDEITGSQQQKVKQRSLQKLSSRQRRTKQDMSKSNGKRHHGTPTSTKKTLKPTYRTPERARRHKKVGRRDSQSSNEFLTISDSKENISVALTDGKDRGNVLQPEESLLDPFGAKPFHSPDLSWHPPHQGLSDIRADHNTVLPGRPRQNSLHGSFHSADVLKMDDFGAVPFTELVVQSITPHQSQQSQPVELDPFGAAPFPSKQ
Mitogen-activated protein kinase kinase kinase 4, sequence (Q9Y6R4 whole entry): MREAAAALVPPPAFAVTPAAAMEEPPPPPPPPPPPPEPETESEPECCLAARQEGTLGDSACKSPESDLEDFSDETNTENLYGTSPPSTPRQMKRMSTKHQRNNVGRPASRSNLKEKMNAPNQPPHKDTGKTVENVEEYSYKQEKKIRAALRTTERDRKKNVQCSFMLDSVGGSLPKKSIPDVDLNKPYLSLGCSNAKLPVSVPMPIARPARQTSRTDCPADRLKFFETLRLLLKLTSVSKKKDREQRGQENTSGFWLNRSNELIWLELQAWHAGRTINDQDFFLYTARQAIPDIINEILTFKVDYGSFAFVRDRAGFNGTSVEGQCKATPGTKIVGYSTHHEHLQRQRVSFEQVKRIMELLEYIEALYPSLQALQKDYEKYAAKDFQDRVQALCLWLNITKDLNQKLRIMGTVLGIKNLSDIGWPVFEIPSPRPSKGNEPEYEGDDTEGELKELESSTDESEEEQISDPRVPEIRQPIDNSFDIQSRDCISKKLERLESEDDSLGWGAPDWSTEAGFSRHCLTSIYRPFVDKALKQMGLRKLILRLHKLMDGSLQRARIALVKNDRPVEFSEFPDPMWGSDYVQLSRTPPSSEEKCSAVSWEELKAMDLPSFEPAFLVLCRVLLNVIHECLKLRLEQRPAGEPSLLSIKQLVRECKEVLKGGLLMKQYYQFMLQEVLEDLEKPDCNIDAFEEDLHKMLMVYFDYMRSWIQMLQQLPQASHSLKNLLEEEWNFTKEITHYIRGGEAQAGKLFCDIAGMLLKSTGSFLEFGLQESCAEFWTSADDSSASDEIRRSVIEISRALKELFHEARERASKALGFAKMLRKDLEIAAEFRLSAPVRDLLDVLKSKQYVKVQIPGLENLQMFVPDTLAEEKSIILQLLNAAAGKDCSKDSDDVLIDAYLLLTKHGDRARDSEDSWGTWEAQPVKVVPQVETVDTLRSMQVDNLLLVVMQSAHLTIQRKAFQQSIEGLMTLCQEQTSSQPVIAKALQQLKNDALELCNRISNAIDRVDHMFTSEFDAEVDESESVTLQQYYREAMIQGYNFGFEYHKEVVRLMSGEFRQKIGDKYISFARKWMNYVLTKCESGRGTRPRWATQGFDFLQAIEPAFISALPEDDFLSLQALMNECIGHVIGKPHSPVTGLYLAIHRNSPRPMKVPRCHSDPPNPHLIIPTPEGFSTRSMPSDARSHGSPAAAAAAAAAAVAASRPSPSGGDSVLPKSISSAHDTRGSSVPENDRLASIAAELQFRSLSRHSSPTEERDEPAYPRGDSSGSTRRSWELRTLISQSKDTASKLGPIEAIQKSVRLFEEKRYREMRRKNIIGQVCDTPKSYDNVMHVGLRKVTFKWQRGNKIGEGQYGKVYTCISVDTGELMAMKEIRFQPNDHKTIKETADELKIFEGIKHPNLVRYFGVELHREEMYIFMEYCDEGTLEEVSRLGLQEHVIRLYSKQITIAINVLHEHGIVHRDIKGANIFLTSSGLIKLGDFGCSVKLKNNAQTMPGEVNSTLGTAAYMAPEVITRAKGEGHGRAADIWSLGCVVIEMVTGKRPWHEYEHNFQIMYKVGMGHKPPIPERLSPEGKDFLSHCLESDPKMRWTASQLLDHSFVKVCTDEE
Mitogen-activated protein kinase kinase kinase kinase 3, sequence (Q8IVH8 whole entry): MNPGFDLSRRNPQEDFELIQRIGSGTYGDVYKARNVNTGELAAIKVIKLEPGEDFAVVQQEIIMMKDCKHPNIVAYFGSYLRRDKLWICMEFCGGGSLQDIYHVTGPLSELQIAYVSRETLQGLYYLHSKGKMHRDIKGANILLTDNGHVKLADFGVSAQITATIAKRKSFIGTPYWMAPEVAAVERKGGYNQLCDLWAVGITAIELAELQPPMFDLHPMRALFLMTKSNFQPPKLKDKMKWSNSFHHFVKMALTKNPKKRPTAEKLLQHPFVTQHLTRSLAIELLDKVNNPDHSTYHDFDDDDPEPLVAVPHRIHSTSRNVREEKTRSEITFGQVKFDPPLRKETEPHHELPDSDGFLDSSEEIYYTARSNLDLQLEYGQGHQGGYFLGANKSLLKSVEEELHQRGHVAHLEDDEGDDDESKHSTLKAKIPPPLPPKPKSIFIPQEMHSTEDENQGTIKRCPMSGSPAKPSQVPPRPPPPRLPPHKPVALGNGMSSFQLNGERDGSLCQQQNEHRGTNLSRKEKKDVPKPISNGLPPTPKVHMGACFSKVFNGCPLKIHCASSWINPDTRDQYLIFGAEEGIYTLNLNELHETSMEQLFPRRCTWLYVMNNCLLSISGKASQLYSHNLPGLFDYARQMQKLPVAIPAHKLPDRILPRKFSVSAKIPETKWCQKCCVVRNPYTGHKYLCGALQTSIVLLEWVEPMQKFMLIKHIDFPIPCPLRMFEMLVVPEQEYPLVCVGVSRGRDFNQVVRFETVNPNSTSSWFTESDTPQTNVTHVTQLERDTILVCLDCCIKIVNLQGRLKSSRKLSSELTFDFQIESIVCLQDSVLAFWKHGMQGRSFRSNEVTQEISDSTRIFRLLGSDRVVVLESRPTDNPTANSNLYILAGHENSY
Mitogen-activated protein kinase 14, sequence (Q16539 whole entry): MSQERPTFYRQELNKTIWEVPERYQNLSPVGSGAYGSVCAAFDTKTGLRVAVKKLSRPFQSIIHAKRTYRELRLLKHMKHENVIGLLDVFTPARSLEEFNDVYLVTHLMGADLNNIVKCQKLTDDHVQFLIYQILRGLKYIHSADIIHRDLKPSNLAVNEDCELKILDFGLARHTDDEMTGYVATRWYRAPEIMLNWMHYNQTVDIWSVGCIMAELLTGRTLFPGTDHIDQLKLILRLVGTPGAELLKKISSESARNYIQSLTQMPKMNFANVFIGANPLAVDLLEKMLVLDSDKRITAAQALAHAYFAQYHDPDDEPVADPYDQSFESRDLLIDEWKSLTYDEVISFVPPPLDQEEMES

CC(C)(C)NS(=O)(=O)c1cncc(-c2ccn3nc(N)nc3c2)c1
inhibition (INH) [1]: Active | IC50 [2]: 9.33 µM | IC50 [3]: 9.55 µM | IC50 [4]: > 10 µM | IC50 [5]: > 10 µM | IC50 [6]: > 10 µM | IC50 [7]: > 10 µM | Activity [8]: 18% | IC50 [9]: 1.07 µM | IC50 [10]: > 10 µM | IC50 [11]: > 10 µM | Activity [12]: 74% | IC50 [13]: > 10 µM | Vd [14]: 1.3 L/kg | IC50 [15]: > 10 µM | IC50 [16]: > 10 µM | IC50 [17]: > 10 µM | IC50 [18]: > 10 µM | IC50 [19]: > 10 µM | IC50 [20]: > 10 µM | IC50 [21]: > 10 µM | IC50 [22]: > 10 µM | IC50 [23]: > 10 µM | IC50 [24]: > 10 µM | IC50 [25]: > 10 µM | IC50 [26]: > 10 µM | IC50 [27]: > 10 µM | IC50 [28]: > 10 µM | IC50 [29]: > 10 µM | IC50 [30]: > 10 µM | IC50 [31]: > 10 µM | IC50 [32]: > 10 µM | IC50 [33]: > 10 µM | bioavailability [34]: 88% | inhibition (INH) [35]: Active | IC50 [36]: > 10 µM | IC50 [37]: > 10 µM | IC50 [38]: > 10 µM | IC50 [39]: > 10 µM | IC50 [40]: > 10 µM | Cmax [41]: 5.9 µM | IC50 [42]: > 10 µM | IC50 [43]: > 10 µM | inhibition in vivo at 3 mg/kg [44]: 41% | IC50 [45]: > 10 µM | IC50 [46]: > 10 µM | IC50 [47]: > 10 µM | IC50 [48]: > 5.89 µM | IC50 [49]: > 10 µM | IC50 [50]: > 5.89 µM | IC50 [51]: > 10 µM | IC50 [52]: > 10 µM | IC50 [53]: > 10 µM | IC50 [54]: > 10 µM
